Reference: PubChem BioAssay (NCI)
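Tested at 5 concentrations; 48 h exposure; 96-well plates; endpoints linearly interpolated, else capped at highest concentration. TGI is the concentration that stops growth completely.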

Legend:
Test in all cases: NCI anticancer screen, dose series, 48 h
[1] = tested on: DMS 273 small cell lung
[2] = tested on: HL-60(TB) leukemia
[3] = tested on: HT29 colon
[4] = tested on: KM20L2 colon
[5] = tested on: LOX IMVI melanoma
[6] = tested on: MALME-3M melanoma
[7] = tested on: MOLT-4 leukemia
[8] = tested on: NCI-H226 lung
[9] = tested on: NCI-H460 lung
[10] = tested on: SK-MEL-5 melanoma
[11] = tested on: NCI/ADR-RES ovarian

For COC(=O)c1ccc(C=C(C#N)C#N)cc1, which TGI [1] is on record?
The TGI was 35.2 µM.

What about the TGI [2] of the same molecule?
Its TGI is 58.1 µM.

And the TGI [3]?
Its TGI is greater than 100 µM.

And the TGI [4]?
Its TGI is greater than 100 µM.

And the TGI [5]?
Its TGI is 50.3 µM.

And the TGI [6]?
Its TGI is 39.6 µM.

And the TGI [7]?
Its TGI is 65.7 µM.

What about the TGI [8] of the same molecule?
The TGI was 80.4 µM.

And the TGI [9]?
The TGI was greater than 100 µM.

And the TGI [10]?
Its TGI is 33.1 µM.

What does the source list for CC(C)=CCC/C(C)=C/CCC1(C)C=Cc2c(c3ccccc3oc2=O)O1 (stereo not drawn)?
TGI [1]: 32 µM; TGI [2]: > 75.8 µM; TGI [3]: 33.7 µM; TGI [4]: 34 µM; TGI [5]: 32.4 µM; TGI [6]: 43.7 µM; TGI [7]: > 72.7 µM; TGI [8]: 30 µM; TGI [9]: 30.1 µM; TGI [11]: 31.1 µM; TGI [10]: 28.1 µM

For CN(C)C(F)=PC(F)(F)F (stereo not drawn), which TGI [1] is on record?
Its TGI is greater than 100 µM.

And the TGI [2]?
Its TGI is greater than 100 µM.

And the TGI [3]?
The TGI was greater than 100 µM.

And the TGI [4]?
The TGI was greater than 100 µM.

And the TGI [5]?
The TGI was greater than 100 µM.

And the TGI [6]?
The TGI was greater than 100 µM.

And the TGI [7]?
The TGI was greater than 100 µM.

What about the TGI [8] of the same molecule?
Its TGI is greater than 100 µM.

What about the TGI [9] of the same molecule?
Its TGI is greater than 100 µM.

And the TGI [10]?
Its TGI is greater than 100 µM.

Which results are given for COc1cc(-c2cc(=O)c3ccccc3[nH]2)cc(OC)c1OC?
TGI [1]: > 75 µM; TGI [2]: > 7.5 µM; TGI [3]: > 75 µM; TGI [4]: > 75 µM; TGI [5]: > 75 µM; TGI [6]: > 75 µM; TGI [7]: > 75 µM; TGI [9]: > 75 µM

What does the source list for CSC(=N)N1N=C2/C(=C/c3ccccc3)CCC[C@H]2[C@H]1c1ccccc1?
TGI [1]: 11.8 µM; TGI [2]: 4.29 µM; TGI [3]: 5.54 µM; TGI [4]: 5.97 µM; TGI [5]: 16.2 µM; TGI [6]: 3.94 µM; TGI [7]: 12.6 µM; TGI [8]: 11.2 µM; TGI [9]: 20.1 µM

What does the source list for CC(C)N(C(=O)C12C3C4C1C1C2C3C41C(=O)N(C(C)C)C(C)C)C(C)C (stereo not drawn)?
TGI [1]: > 50 µM; TGI [2]: > 50 µM; TGI [3]: > 50 µM; TGI [4]: > 50 µM; TGI [5]: > 50 µM; TGI [6]: > 50 µM; TGI [7]: > 50 µM; TGI [8]: > 50 µM; TGI [9]: > 50 µM; TGI [10]: > 50 µM

What does the source list for Cc1c(C2=NN=C(N=Nc3c(O)cccc3O)/C2=C/c2ccccc2)c(=O)n(-c2ccccc2)n1C?
TGI [1]: > 100 µM; TGI [2]: > 100 µM; TGI [3]: > 100 µM; TGI [4]: > 100 µM; TGI [5]: > 100 µM; TGI [6]: > 100 µM; TGI [7]: > 100 µM; TGI [8]: > 100 µM; TGI [9]: > 100 µM; TGI [11]: > 100 µM; TGI [10]: > 100 µM

Which results are given for C/C(N=NS(=O)(=O)c1ccc(C)cc1)=C1\C=CC=CN1O?
TGI [1]: > 100 µM; TGI [2]: > 100 µM; TGI [3]: > 100 µM; TGI [4]: > 100 µM; TGI [7]: > 100 µM; TGI [9]: > 100 µM; TGI [10]: > 100 µM

With NC(CCCCNCc1ccccc1O)C(=O)O (stereo not drawn) as the molecule, how does the TGI [1] read?
The TGI was greater than 100 µM.

And the TGI [2]?
The TGI was greater than 100 µM.

What about the TGI [3] of the same molecule?
The TGI was greater than 100 µM.

And the TGI [4]?
Its TGI is greater than 100 µM.

And the TGI [5]?
The TGI was greater than 100 µM.

What about the TGI [6] of the same molecule?
Its TGI is greater than 100 µM.

And the TGI [7]?
Its TGI is greater than 100 µM.

And the TGI [8]?
The TGI was greater than 100 µM.

And the TGI [9]?
Its TGI is greater than 100 µM.

What about the TGI [10] of the same molecule?
Its TGI is greater than 100 µM.

Which TGI [1] does the source give for CSc1ccc2c(cc1=O)C(NC(=O)c1ccc(C#N)cc1)CCc1cc(O)c(O)c(O)c1-2 (stereo not drawn) here?
The TGI was greater than 100 µM.

And the TGI [2]?
The TGI was 51.9 µM.

What about the TGI [3] of the same molecule?
The TGI was 75.3 µM.

And the TGI [4]?
Its TGI is 45.5 µM.

What about the TGI [6] of the same molecule?
Its TGI is greater than 100 µM.

And the TGI [7]?
Its TGI is 59 µM.

And the TGI [8]?
Its TGI is 59.1 µM.

What about the TGI [9] of the same molecule?
The TGI was 73.3 µM.

And the TGI [10]?
Its TGI is 71.5 µM.

For CCc1ccccc1NC(=O)CC1NC(=O)CS1 (stereo not drawn), which TGI [1] is on record?
The TGI was greater than 100 µM.

And the TGI [2]?
The TGI was greater than 100 µM.

What about the TGI [4] of the same molecule?
Its TGI is greater than 100 µM.

And the TGI [5]?
Its TGI is greater than 100 µM.

And the TGI [6]?
The TGI was greater than 100 µM.

And the TGI [7]?
The TGI was greater than 100 µM.

And the TGI [8]?
The TGI was greater than 100 µM.

And the TGI [9]?
The TGI was greater than 100 µM.

What about the TGI [10] of the same molecule?
Its TGI is greater than 100 µM.

CSc1c(C#N)c(S)n(-c2ccc(Cl)cc2)c(=O)c1C#N was tested. Which TGI [2] did it give?
The TGI was greater than 100 µM.

And the TGI [3]?
Its TGI is greater than 100 µM.

And the TGI [5]?
Its TGI is greater than 100 µM.

And the TGI [6]?
Its TGI is greater than 100 µM.

And the TGI [7]?
The TGI was greater than 100 µM.

And the TGI [8]?
Its TGI is greater than 100 µM.

What about the TGI [9] of the same molecule?
The TGI was greater than 100 µM.

What about the TGI [11] of the same molecule?
Its TGI is greater than 100 µM.

And the TGI [10]?
The TGI was greater than 100 µM.

How did the TGI [2] turn out when O/N=C1/CCCc2nonc21 was run?
Its TGI is greater than 100 µM.

And the TGI [3]?
Its TGI is greater than 100 µM.

And the TGI [5]?
Its TGI is greater than 100 µM.

What about the TGI [6] of the same molecule?
The TGI was greater than 100 µM.

And the TGI [7]?
Its TGI is greater than 100 µM.

And the TGI [8]?
The TGI was greater than 100 µM.

What about the TGI [9] of the same molecule?
The TGI was greater than 100 µM.

What about the TGI [11] of the same molecule?
Its TGI is greater than 100 µM.

What about the TGI [10] of the same molecule?
The TGI was greater than 100 µM.

What does the source list for Nc1nc2ncn(CC(O)CO)c2c(=O)[nH]1 (stereo not drawn)?
TGI [1]: > 100 µM; TGI [2]: > 100 µM; TGI [3]: > 100 µM; TGI [4]: > 100 µM; TGI [5]: > 100 µM; TGI [6]: > 100 µM; TGI [8]: > 100 µM; TGI [9]: > 100 µM; TGI [10]: > 100 µM

O=c1ccn(/C=C/C(O)C(O)CO)c(=O)[nH]1 (stereo not drawn) was tested. Which TGI [1] did it give?
The TGI was greater than 100 µM.

What about the TGI [2] of the same molecule?
The TGI was greater than 100 µM.

And the TGI [3]?
The TGI was greater than 100 µM.

And the TGI [4]?
Its TGI is greater than 100 µM.

And the TGI [5]?
The TGI was greater than 100 µM.

And the TGI [6]?
The TGI was greater than 100 µM.

And the TGI [7]?
Its TGI is greater than 100 µM.

And the TGI [8]?
Its TGI is greater than 100 µM.

And the TGI [10]?
The TGI was greater than 100 µM.

With O=C(/C=C(\Nc1ccccc1O)c1ccc(Br)cc1)C(Cl)(Cl)Cl as the molecule, how does the TGI [2] read?
Its TGI is 9.39 µM.

And the TGI [3]?
Its TGI is 20.8 µM.

What about the TGI [5] of the same molecule?
Its TGI is 32.9 µM.

And the TGI [6]?
The TGI was 29.2 µM.

What about the TGI [7] of the same molecule?
The TGI was 33.7 µM.

What about the TGI [8] of the same molecule?
Its TGI is 26.5 µM.

And the TGI [9]?
Its TGI is 12.9 µM.

And the TGI [11]?
Its TGI is 25.1 µM.

And the TGI [10]?
Its TGI is 27.7 µM.

With Cc1ccc(S(=O)(=O)N2CC(CCN)c3ccccc32)cc1 (stereo not drawn) as the molecule, how does the TGI [2] read?
Its TGI is greater than 100 µM.

What about the TGI [3] of the same molecule?
Its TGI is 8.14 µM.

And the TGI [5]?
The TGI was 13.5 µM.

What about the TGI [6] of the same molecule?
Its TGI is 17.6 µM.

And the TGI [7]?
Its TGI is greater than 83.9 µM.

What about the TGI [8] of the same molecule?
Its TGI is 11.6 µM.

And the TGI [9]?
Its TGI is greater than 64.8 µM.

And the TGI [11]?
The TGI was 17 µM.

And the TGI [10]?
The TGI was 17.7 µM.
